Reference: ChEMBL document CHEMBL3632595, “Constituents of the seeds of Cassia tora with inhibitory activity on soluble expoxide hydrolease” (Bioorg Med Chem Lett, 2015)

Experiments:
[1] = target: T1, Bifunctional epoxide hydrolase 2 (Homo sapiens) (UniProt P34913); conditions: at 50 µM
T1 sequence (whole entry): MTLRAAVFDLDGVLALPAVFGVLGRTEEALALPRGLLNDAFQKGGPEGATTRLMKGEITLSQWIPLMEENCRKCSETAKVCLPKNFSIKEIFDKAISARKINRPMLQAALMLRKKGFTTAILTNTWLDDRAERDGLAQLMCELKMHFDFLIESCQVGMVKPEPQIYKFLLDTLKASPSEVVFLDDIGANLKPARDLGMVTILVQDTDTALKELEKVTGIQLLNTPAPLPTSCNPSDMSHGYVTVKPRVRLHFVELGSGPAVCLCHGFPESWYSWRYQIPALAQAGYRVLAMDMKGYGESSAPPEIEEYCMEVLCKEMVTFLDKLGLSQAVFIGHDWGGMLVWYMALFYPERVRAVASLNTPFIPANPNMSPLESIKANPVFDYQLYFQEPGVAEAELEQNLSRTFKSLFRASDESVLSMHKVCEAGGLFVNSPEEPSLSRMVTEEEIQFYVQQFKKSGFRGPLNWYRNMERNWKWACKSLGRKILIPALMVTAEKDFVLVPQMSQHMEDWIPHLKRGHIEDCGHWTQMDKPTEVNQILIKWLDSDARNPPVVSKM
Description: Inhibition of sEH (unknown origin) assessed as 6-methoxy-2-naphthaldehyde formation at 50 uM by fluorometry assay using 40 uM cyano-(6-methoxy-naphthalen-2-yl)-methyl ester as substrate

[2] = target: T2, Bifunctional epoxide hydrolase 2 (Homo sapiens, UniProt P34913); experiment: Inhibition of sEH (unknown origin) assessed as 6-methoxy-2-naphthaldehyde formation by fluorometry assay using 40 uM cyano-(6-methoxy-naphthalen-2-yl)-methyl ester as substrate
T2 sequence (P34913 whole entry): T1 sequence (whole entry)

[3] = target: T2, Bifunctional epoxide hydrolase 2; experiment: Reversible-uncompetitive inhibition of sEH (unknown origin) by Lineweaver-Burk plot

Compound | inhibition [1] [%] | IC50 [2] [µM] | Ki [3] [µM]
COc1cc(O[C@@H]2O[C@H](CO[C@@H]3O[C@H](CO)[C@@H](O)[C@H](O)[C@H]3O)[C@@H](O)[C@H](O)[C@H]2O)c2c(O)c3c(=O)oc(C)cc3cc2c1 | 67.6 | 20 | –
COc1cc(O[C@@H]2O[C@H](CO[C@@H]3O[C@H](CO)[C@@H](O)[C@H](O)[C@H]3O)[C@@H](O)[C@H](O)[C@H]2O)c2c(O)c3c(=O)cc(C)oc3cc2c1 | 50.9 | 37.5 | –
COc1c(O)cc2c(c1O)C(=O)c1c(cc(C)c(O)c1OC)C2=O | 0 | – | –
COc1c(O[C@@H]2O[C@H](CO)[C@@H](O)[C@H](O)[C@H]2O)c(C)cc2c1C(=O)c1c(O)cccc1C2=O | 50.6 | 24.3 | –
COc1ccc2c(c1O)C(=O)c1c(cc(C)c(O)c1OC)C2=O | 54.2 | 35.7 | –
COc1cc(O[C@@H]2O[C@H](CO)[C@@H](O)[C@H](O)[C@H]2O)c2c(O)c3c(=O)cc(C)oc3cc2c1 | 38.1 | – | –
COc1c(O[C@@H]2O[C@H](CO)[C@@H](O)[C@H](O)[C@H]2O)cc2c(c1O)C(=O)c1c(cc(C)c(O)c1OC)C2=O | 57.7 | 33 | –
Cc1cc(O)c2c(c1)C(=O)c1cccc(O)c1C2=O | 38.1 | – | –
Cc1cc(O)c2c(c1)C(=O)c1cc(O)cc(O)c1C2=O [EMODIN] | 56.4 | 36.4 | –
COc1c(O)c(C)cc2c1C(=O)c1c(O)cccc1C2=O | 2.6 | – | –
COc1cc(O[C@@H]2O[C@H](CO)[C@@H](O)[C@H](O)[C@H]2O)c2c(OC)c(C(C)=O)c(O[C@H]3OC[C@@](O)(CO)[C@@H]3O)cc2c1 | 91.6 | 2.2 | 0.6
COc1cc2c(c(OC)c1OC)C(=O)c1c(cc(C)c(O)c1OC)C2=O [CHRYSOOBTUSIN] | 59.8 | 26.3 | –
COc1cc2c(c(O)c1OC)C(=O)c1c(cc(C)c(O)c1OC)C2=O | 55.1 | 26.4 | –
COc1cc(O)c2c(c1)C(=O)c1cc(C)cc(O)c1C2=O | 27.1 | – | –
COc1cc2c(c(OC)c1OC)C(=O)c1c(cc(C)c(O[C@@H]3O[C@H](CO)[C@@H](O)[C@H](O)[C@H]3O)c1OC)C2=O | 28.6 | – | –
COc1cc(O[C@@H]2O[C@H](CO[C@@H]3O[C@H](CO)[C@@H](O)[C@H](O)[C@H]3O)[C@@H](O)[C@H](O)[C@H]2O)c2c(c1)C(=O)c1cc(C)cc(O)c1C2=O | 51 | 40.6 | –
